Where a SMILES comes first, the peptide text is derived from it.
Target: HLA-A02 (Homo sapiens, UniProt P04439, D140Y/D185E/D98H/E176V/E277Q/G131W/G231S/I119V/I121R/I166T/I218V/L300P/L318F/N151K/N90K/P208A/P217A/Q86G/Q94H/R138H/R169H/T345S)
Assay: Competition binding assay using soluble HLA class I

SMILES | IC50 | Ki
CC(C)[C@H](NC(=O)[C@@H](NC(=O)[C@H](C)NC(=O)[C@H](CCC(N)=O)NC(=O)[C@@H](N)Cc1ccc(O)cc1)[C@@H](C)O)C(=O)N[C@@H](CS)C(=O)N[C@@H](C)C(=O)N[C@@H](CCCNC(=N)N)C(=O)N[C@@H](C)C(=O)O (H-YQATVCARA-OH) | 20 nM | 20 nM
CC(C)C[C@H](NC(=O)[C@@H](NC(=O)[C@@H](NC(=O)[C@H](CC(C)C)NC(=O)[C@@H](N)CCCNC(=N)N)C(C)C)C(C)C)C(=O)N[C@@H](C)C(=O)N[C@H](C(=O)N[C@@H](C)C(=O)N[C@H](C(=O)O)[C@@H](C)O)[C@@H](C)O | – | 16700 nM
CC(C)C[C@H](NC(=O)[C@@H]1CCCN1C(=O)[C@H](Cc1c[nH]c2ccccc12)NC(=O)[C@@H]1CCCN1C(=O)[C@H](Cc1ccc(O)cc1)NC(=O)CNC(=O)[C@@H]1CCCN1C(=O)[C@H](CCC(N)=O)NC(=O)[C@H](C)N)C(=O)O (H-AQPGYPWPL-OH; N-terminus and C-terminus assumed) | – | 382 nM
CC[C@H](C)[C@H](NC(=O)[C@@H](N)Cc1ccccc1)C(=O)N1CCC[C@H]1C(=O)N[C@H](C(=O)N[C@@H](CCC(=O)O)C(=O)N[C@@H](CO)C(=O)N[C@@H](CCSC)C(=O)N[C@@H](CCC(=O)O)C(=O)N[C@H](C(=O)O)[C@@H](C)O)C(C)C (H-FIPVESMET-OH) | – | 934 nM
CSCC[C@H](NC(=O)CN)C(=O)N[C@@H](Cc1ccccc1)C(=O)N[C@@H](CC(=O)O)C(=O)N[C@@H](CO)C(=O)N[C@@H](CO)C(=O)N[C@H](C(=O)N[C@@H](CC(C)C)C(=O)N[C@@H](CS)C(=O)O)C(C)C (H-GMFDSSVLC-OH) | 114 nM | 71 nM
CC[C@H](C)[C@H](NC(=O)[C@H](CS)NC(=O)CNC(=O)[C@H](CC(C)C)NC(=O)[C@H](CC(C)C)NC(=O)CN)C(=O)N[C@H](C(=O)N[C@H](C(=O)N[C@@H](CO)C(=O)N[C@@H](CC(C)C)C(=O)O)[C@@H](C)O)[C@@H](C)CC | 26 nM | 26 nM
CC(C)C[C@H](NC(=O)[C@H](Cc1ccccc1)NC(=O)[C@@H](NC(=O)[C@H](CO)NC(=O)CNC(=O)[C@H](CS)NC(=O)[C@H](CC(C)C)NC(=O)[C@@H](N)CC(=O)O)C(C)C)C(=O)N[C@H](C(=O)O)C(C)C (H-DLCGSVFLV-OH; N-terminus and C-terminus assumed) | – | 789 nM
CC[C@H](C)[C@H](N)C(=O)N[C@@H](CCSC)C(=O)N[C@@H](C)C(=O)N[C@@H](CCCCN)C(=O)N[C@@H](CC(N)=O)C(=O)N[C@@H](CCC(=O)O)C(=O)N[C@H](C(=O)N[C@@H](Cc1ccccc1)C(=O)N[C@@H](CS)C(=O)N[C@H](C(=O)O)C(C)C)C(C)C (H-IMAKNEVFCV-OH; N-terminus and C-terminus assumed) | 199 nM | 199 nM
CSCC[C@H](N)C(=O)N[C@@H](C)C(=O)N[C@@H](CC(C)C)C(=O)N[C@@H](Cc1ccc(O)cc1)C(=O)N[C@@H](CC(=O)O)C(=O)N[C@H](C(=O)N[C@H](C(=O)N[C@@H](CO)C(=O)N[C@H](C(=O)O)[C@@H](C)O)C(C)C)C(C)C (H-MALYDVVST-OH; N-terminus and C-terminus assumed) | – | 1140 nM
CC(C)C[C@H](NC(=O)[C@@H](N)Cc1ccc(O)cc1)C(=O)N[C@@H](Cc1ccccc1)C(=O)N[C@@H](CC(N)=O)C(=O)N[C@@H](Cc1c[nH]c2ccccc12)C(=O)N[C@@H](C)C(=O)N[C@H](C(=O)N[C@@H](CCCNC(=N)N)C(=O)N[C@H](C(=O)O)[C@@H](C)O)C(C)C (H-YLFNWAVRT-OH; N-terminus and C-terminus assumed) | 29 nM | 29 nM
CC(C)C[C@H](NC(=O)[C@@H](NC(=O)[C@H](CC(C)C)NC(=O)[C@@H](NC(=O)[C@@H](N)CCCCN)C(C)C)C(C)C)C(=O)N[C@@H](CC(N)=O)C(=O)N1CCC[C@H]1C(=O)N[C@@H](CO)C(=O)N[C@H](C(=O)O)C(C)C (H-KVLVLNPSV-OH) | 50 nM | 50 nM
CC[C@H](C)[C@H](NC(=O)[C@H](Cc1ccc(O)cc1)NC(=O)[C@H](CC(C)C)NC(=O)[C@@H](N)CCCNC(=N)N)C(=O)NCC(=O)NCC(=O)N1CCC[C@H]1C(=O)N[C@@H](CC(C)C)C(=O)N[C@H](C(=O)O)[C@@H](C)O (H-RLYIGGPLT-OH) | – | 536 nM
CC(C)C[C@H](NC(=O)[C@H](CC(C)C)NC(=O)[C@@H]1CCCN1C(=O)[C@@H](NC(=O)[C@@H]1CCCN1C(=O)CNC(=O)[C@H](Cc1c[nH]cn1)NC(=O)[C@H](CC(C)C)NC(=O)[C@@H](N)[C@@H](C)O)[C@@H](C)O)C(=O)O | 68 nM | 68 nM
CC(C)C[C@H](NC(=O)[C@H](CS)NC(=O)[C@H](CO)NC(=O)[C@H](CC(C)C)NC(=O)[C@H](CC(C)C)NC(=O)[C@H](C)NC(=O)[C@H](CC(C)C)NC(=O)[C@H](CC(C)C)NC(=O)[C@@H](N)Cc1ccccc1)C(=O)O | 136 nM | 136 nM
CC(C)C[C@H](NC(=O)[C@H](C)NC(=O)[C@H](CC(C)C)NC(=O)[C@H](CC(C)C)NC(=O)[C@H](CC(C)C)NC(=O)[C@H](CC(C)C)NC(=O)[C@H](CC(C)C)NC(=O)[C@H](CC(C)C)NC(=O)[C@@H]1CCCN1)C(=O)O [PLLLLLLAL] (H-PLLLLLLAL-OH) | – | 6550 nM
CC(C)C[C@H](NC(=O)[C@H](CC(C)C)NC(=O)[C@H](Cc1c[nH]c2ccccc12)NC(=O)CNC(=O)[C@H](C)NC(=O)[C@H](Cc1c[nH]c2ccccc12)NC(=O)CNC(=O)[C@H](CC(C)C)NC(=O)CN)C(=O)O | – | 27 nM

SMILES | IC50 | Ki
CC[C@H](C)[C@H](NC(=O)[C@@H](N)Cc1ccc(O)cc1)C(=O)N1CCC[C@H]1C(=O)N[C@@H](CC(C)C)C(=O)N[C@H](C(=O)NCC(=O)N[C@@H](C)C(=O)N1CCC[C@H]1C(=O)N[C@@H](CC(C)C)C(=O)O)C(C)C | 337 nM | 77 nM
CC[C@H](C)[C@H](NC(=O)[C@@H](NC(=O)[C@H](CC(C)C)NC(=O)[C@H](CS)NC(=O)[C@H](CO)NC(=O)[C@H](CC(C)C)NC(=O)[C@@H](N)CC(C)C)[C@@H](C)O)C(=O)N1CCC[C@H]1C(=O)N[C@@H](C)C(=O)O | 12 nM | 12 nM
CC[C@H](C)[C@H](NC(=O)[C@H](Cc1c[nH]cn1)NC(=O)[C@@H](NC(=O)[C@H](CC(C)C)NC(=O)CNC(=O)[C@@H](NC(=O)[C@H](Cc1ccccc1)NC(=O)[C@@H](NC(=O)[C@@H](N)CO)C(C)C)[C@@H](C)O)[C@@H](C)O)C(=O)O | – | 84 nM
CC[C@H](C)[C@H](NC(=O)[C@H](CC(N)=O)NC(=O)CNC(=O)[C@H](CC(C)C)NC(=O)[C@@H](N)Cc1c[nH]c2ccccc12)C(=O)N[C@H](C(=O)N[C@@H](CCSC)C(=O)N[C@@H](Cc1ccc(O)cc1)C(=O)N[C@@H](C)C(=O)O)[C@@H](C)CC | – | 14.5 nM
CC(C)C[C@H](NC(=O)[C@H](CCCNC(=N)N)NC(=O)[C@H](Cc1ccc(O)cc1)NC(=O)[C@@H]1CCCN1C(=O)[C@H](Cc1ccc(O)cc1)NC(=O)[C@H](CC(=O)O)NC(=O)[C@@H](NC(=O)[C@H](CC(C)C)NC(=O)[C@@H](N)CS)C(C)C)C(=O)O (H-CLVDYPYRL-OH; N-terminus and C-terminus assumed) | 437 nM | 437 nM
CC[C@H](C)[C@H](NC(=O)[C@H](CO)NC(=O)[C@H](Cc1ccccc1)NC(=O)[C@H](CO)NC(=O)[C@H](CS)NC(=O)CNC(=O)[C@@H]1CCCN1C(=O)[C@H](CC(C)C)NC(=O)[C@@H](N)CC(N)=O)C(=O)O (H-NLPGCSFSI-OH) | 83 nM | 70 nM
CC[C@H](C)[C@H](NC(=O)[C@@H](NC(=O)[C@@H](N)CC(N)=O)[C@@H](C)CC)C(=O)N[C@@H](CCSC)C(=O)N[C@@H](Cc1ccc(O)cc1)C(=O)N[C@@H](C)C(=O)N1CCC[C@H]1C(=O)N[C@H](C(=O)N[C@@H](CC(C)C)C(=O)O)[C@@H](C)O | 70 nM | 70 nM
CC[C@H](C)[C@H](N)C(=O)N[C@@H](CCSC)C(=O)N[C@@H](Cc1ccc(O)cc1)C(=O)N[C@@H](C)C(=O)N1CCC[C@H]1C(=O)N[C@H](C(=O)N[C@@H](CC(C)C)C(=O)N[C@@H](Cc1c[nH]c2ccccc12)C(=O)N[C@@H](C)C(=O)O)[C@@H](C)O | 46 nM | 46 nM
CC[C@H](C)[C@H](N)C(=O)N[C@@H](CCSC)C(=O)N[C@@H](C)C(=O)N[C@@H](CS)C(=O)N[C@@H](CCSC)C(=O)N[C@@H](CO)C(=O)N[C@@H](C)C(=O)N[C@@H](CC(=O)O)C(=O)N[C@@H](CC(C)C)C(=O)O (H-IMACMSADL-OH; N-terminus and C-terminus assumed) | 66 nM | 66 nM
CC[C@H](C)[C@H](NC(=O)[C@@H](N)CCC(N)=O)C(=O)N[C@H](C(=O)NCC(=O)NCC(=O)N[C@H](C(=O)N[C@@H](Cc1ccc(O)cc1)C(=O)N[C@@H](CC(C)C)C(=O)N[C@@H](CC(C)C)C(=O)O)C(C)C)C(C)C | 228 nM | –
CSCC[C@H](NC(=O)[C@@H](N)CO)C(=O)N[C@H](C(=O)NCC(=O)N[C@@H](CC(N)=O)C(=O)N[C@@H](Cc1c[nH]c2ccccc12)C(=O)N[C@@H](C)C(=O)N[C@@H](CCCCN)C(=O)N[C@H](C(=O)O)C(C)C)C(C)C (H-SMVGNWAKV-OH; N-terminus and C-terminus assumed) | 158 nM | 158 nM
CC(C)C[C@H](NC(=O)[C@H](C)NC(=O)[C@H](CC(C)C)NC(=O)[C@H](CC(C)C)NC(=O)[C@@H](N)Cc1ccccc1)C(=O)N[C@@H](CC(C)C)C(=O)N[C@@H](CO)C(=O)N[C@@H](CS)C(=O)N[C@@H](CC(C)C)C(=O)N[C@H](C(=O)O)[C@@H](C)O | 132 nM | 132 nM
CC(C)C[C@H](NC(=O)[C@@H](NC(=O)[C@@H](N)CC(C)C)C(C)C)C(=O)N[C@@H](CC(N)=O)C(=O)N1CCC[C@H]1C(=O)N[C@@H](CO)C(=O)N[C@H](C(=O)N[C@@H](C)C(=O)N[C@@H](C)C(=O)O)C(C)C | – | 1680 nM
CC(C)C[C@H](NC(=O)[C@@H](NC(=O)[C@H](CO)NC(=O)[C@@H](NC(=O)[C@@H](N)C(C)C)C(C)C)[C@@H](C)O)C(=O)N1CCC[C@H]1C(=O)N[C@@H](CCC(N)=O)C(=O)N[C@@H](C)C(=O)N[C@H](C(=O)O)C(C)C (H-VVSTLPQAV-OH; N-terminus and C-terminus assumed) | – | 884 nM
CC[C@H](C)[C@H](NC(=O)[C@H](Cc1c[nH]cn1)NC(=O)[C@@H](NC(=O)[C@H](CC(C)C)NC(=O)CNC(=O)[C@@H](NC(=O)[C@H](Cc1ccccc1)NC(=O)[C@@H](NC(=O)[C@@H](N)CO)C(C)C)[C@@H](C)O)[C@@H](C)CC)C(=O)O (H-SVFTGLIHI-OH) | 101 nM | –

From patent US20060093617A1, “Peptides for inducing a CTL and/or HTL response to hepatitis C virus” (Innogenetics, N.V., priority 2004, published 2006)
